Measured values: ChEMBL document CHEMBL3045390, “Synthesis of 3-(5-bromo-2,3-dimethoxy-phenyl)-[1, 2, 4] oxadiazole analogues and their evaluation as anti-Parkinsons agents” (Med Chem Res, 2008)
Calls of active or inactive are those of the source. The rule behind the calls is not given here.

Assays:
Rattus norvegicus [1] = test: Neurotoxicity inRattus norvegicus albino (rat) assessed as motor coordination at 200 mg/kg, ip after 30 min by […]; assay type: toxicity, organism-based; design: dose 200 mg/kg, route intraperitoneal; settings: in vivo, 0.5 h
Rattus norvegicus [2] = test: Antiparkinson's activity in Rattus norvegicus albino (rat) assessed as reduction of chlorpromazine-induced catatonia at 100 mg/kg, ip administered 30 min before chlorpromazine challenge measured up to 180 min; assay type: functional, organism-based; design: dose 100 mg/kg
[3] = Lipophilicity, log P of the compound; assay type: physicochemical; settings: octanol/water
Rattus norvegicus [4] = test: Antiparkinson's activity in Rattus norvegicus albino (rat) assessed as reduction of chlorpromazine-induced catatonia at 10 mg/kg, ip administered 30 min before chlorpromazine challenge measured up to 180 min; assay type: functional, organism-based; design: dose 10 mg/kg
Rattus norvegicus [5] = test: Neurotoxicity inRattus norvegicus albino (rat) assessed as motor coordination at 10 mg/kg, ip after 30 min by […]; assay type: toxicity, organism-based; design: dose 10 mg/kg, route intraperitoneal; settings: in vivo, 0.5 h

logP [3] | SMILES | Activity (Rattus norvegicus [1]) | Activity (Rattus norvegicus [2]) | Activity (Rattus norvegicus [4]) | Activity (Rattus norvegicus [5])
4.08 | COc1cc(Br)cc(-c2noc(C3CCCN(C)C3)n2)c1OC (stereo not drawn) | Non-toxic | Active | – | –
5.81 | COc1cc(Br)cc(-c2noc(C3CCCCN3Cc3ccccc3)n2)c1OC (stereo not drawn) | Toxic | Active | – | –
3.79 | COc1cc(Br)cc(-c2noc(C3CCCN3C)n2)c1OC (stereo not drawn) | Non-toxic | Active | – | –
3.86 | COc1cc(Br)cc(-c2noc(C3CCN(C)CC3)n2)c1OC | Non-toxic | Active | – | –
4.21 | COc1cc(Br)cc(-c2noc(C3CCCCN3C)n2)c1OC (stereo not drawn) | Non-toxic | Active | – | –
5.52 | COc1cc(Br)cc(-c2noc(C3CCCN3Cc3ccccc3)n2)c1OC (stereo not drawn) | Toxic | Active | – | –

The next lines start with the compound.

SMILES | logP [3] | Activity (Rattus norvegicus [1]) | Activity (Rattus norvegicus [2]) | Activity (Rattus norvegicus [4]) | Activity (Rattus norvegicus [5])
COc1cc(Br)cc(-c2noc(C3CCCN(Cc4ccccc4)C3)n2)c1OC (stereo not drawn) | 5.81 | Toxic | Active | – | –
COc1cc(Br)cc(-c2noc(C3CCN(Cc4ccccc4)CC3)n2)c1OC | 5.59 | Toxic | Active | – | –
N[C@@H](Cc1ccc(O)c(O)c1)C(=O)O [LEVODOPA] | – | – | – | inactive | Non-toxic
NCCc1ccc(O)c(O)c1 [DOPAMINE] | – | – | – | inactive | Non-toxic
